One may read the Ki as a dissociation constant, usually derived from enzyme kinetics or from competition with a known ligand.

Bounds are passed on as bounds.

In patent US8796289B2 (AbbVie Inc., priority 2011, dated 2014) one finds Ki data, which are given here for 21 compounds.

GST-tagged-Wee1 kinase, sequence (P30291 whole entry): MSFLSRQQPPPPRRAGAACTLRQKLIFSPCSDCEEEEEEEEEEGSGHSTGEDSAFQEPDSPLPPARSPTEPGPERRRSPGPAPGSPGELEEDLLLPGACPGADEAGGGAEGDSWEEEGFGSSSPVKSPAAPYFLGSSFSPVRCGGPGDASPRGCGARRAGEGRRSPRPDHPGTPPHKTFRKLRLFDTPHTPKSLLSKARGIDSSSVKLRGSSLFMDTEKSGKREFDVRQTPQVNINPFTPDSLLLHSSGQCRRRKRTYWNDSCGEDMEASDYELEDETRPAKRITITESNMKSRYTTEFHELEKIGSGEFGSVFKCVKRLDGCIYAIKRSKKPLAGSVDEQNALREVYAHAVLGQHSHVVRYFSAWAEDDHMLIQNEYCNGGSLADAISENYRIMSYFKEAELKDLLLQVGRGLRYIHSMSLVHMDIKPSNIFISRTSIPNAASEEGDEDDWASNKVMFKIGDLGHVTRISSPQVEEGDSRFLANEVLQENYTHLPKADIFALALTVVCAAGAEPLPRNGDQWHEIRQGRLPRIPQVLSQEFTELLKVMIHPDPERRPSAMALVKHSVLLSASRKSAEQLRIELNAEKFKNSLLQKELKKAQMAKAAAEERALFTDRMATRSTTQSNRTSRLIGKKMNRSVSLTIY

This assay deals with GST-tagged-Wee1 kinase (Homo sapiens, UniProt P30291). Kind of assay: Wee1 time-resolved fluorescence equilibrium binding assay (displacement of Oregon Green-labeled ATP-competitive kinase probe). Here is the method:
Wee1 kinase was assayed using a time-resolved fluorescence equilibrium binding assay monitoring displacement of a rapidly reversible Oregon Green-labeled ATP-competitive kinase probe (N-(2-(2-(2-(4-(4-(5-chloro-4-(2-(1-hydroxycyclobutyl)thiazol-5-yl)-1H-pyrrolo[2,3-b]pyridin-2-yl)phenyl)piperazin-1-yl)ethoxy)ethoxy)ethyl)-2′,7′-difluoro-3′,6′-dihydroxy-3-oxo-3H-spiro[isobenzofuran-1,9′-xanthene]-5-carboxamide) by competitive Wee1 inhibitors.
For the compound `NCCn1ccc(-c2nn(-c3c(Cl)cccc3Cl)c(=O)c3cnc(Nc4ccc(N5CCNCC5)cc4)nc23)n1` [Example 259, 8-[1-(2-aminoethyl)-1H-pyrazol-3-yl]-6-(2,6-dichlorophenyl)-2-{[4-(piperazin-1-yl)phenyl]amino}pyrimido[4,5-d]pyridazin-5(6H)-one], the affinity, expressed as Ki, was 0.2 nM. To `CN1CCN(c2ccc(Nc3ncc4c(=O)n(-c5ncccc5Cl)nc(-c5ccccn5)c4n3)cc2)CC1` [Example 348, 6-(3-chloropyridin-2-yl)-2-{[4-(4-methylpiperazin-1-yl)phenyl]amino}-8-(pyridin-2-yl)pyrimido[4,5-d]pyridazin-5(6H)-one] belongs 1.8 nM; to `Cc1ccccc1-n1nc(CCc2ccccc2)c2nc(Nc3ccc(N4CCN(C)CC4)cc3)ncc2c1=O` [Example 12, 6-(2-methylphenyl)-2-{[4-(4-methylpiperazin-1-yl)phenyl]amino}-8-(2-phenylethyl)pyrimido[4,5-d]pyridazin-5(6H)-one], 6 nM. To `CC(=O)c1cc(-c2nn(-c3c(Cl)cccc3Cl)c(=O)c3cnc(Nc4ccc(N5CCN(C)CC5)cc4)nc23)ccn1` [Example 219, 8-(2-acetylpyridin-4-yl)-6-(2,6-dichlorophenyl)-2-{[4-(4-methylpiperazin-1-yl)phenyl]amino}pyrimido[4,5-d]pyridazin-5(6H)-one] belongs 0.1 nM. The compound `O=c1c2cnc(Nc3ccc4c(c3)CNCC4)nc2c(-c2ccccn2)nn1-c1c(Cl)cccc1Cl` [Example 217, 6-(2,6-dichlorophenyl)-8-(pyridin-2-yl)-2-(1,2,3,4-tetrahydroisoquinolin-7-ylamino)pyrimido[4,5-d]pyridazin-5(6H)-one] returned a Ki of 0.1 nM. Turning to `CN1Cc2cc(Nc3ncc4c(=O)n(-c5c(Cl)cccc5Cl)nc(-c5ccncc5)c4n3)ccc2C(C)(C)C1` [Example 256, 6-(2,6-dichlorophenyl)-8-(pyridin-4-yl)-2-[(2,4,4-trimethyl-1,2,3,4-tetrahydroisoquinolin-7-yl)amino]pyrimido[4,5-d]pyridazin-5(6H)-one], the Ki was 0.3 nM. In turn, `Cc1nn(-c2c(Cl)cccc2Cl)c(=O)c2cnc(Nc3ccc4c(c3)CNCC4(C)C)nc12` [Example 438, 6-(2,6-dichlorophenyl)-2-[(4,4-dimethyl-1,2,3,4-tetrahydroisoquinolin-7-yl)amino]-8-methylpyrimido[4,5-d]pyridazin-5(6H)-one] gave a Ki of 0.18 nM. With `CN1CCN(c2ccc(Nc3ncc4c(=O)n(-c5ccccc5)nc(-c5ccco5)c4n3)cc2)CC1` [Example 34, 8-(2-furyl)-2-{[4-(4-methylpiperazin-1-yl)phenyl]amino}-6-phenylpyrimido[4,5-d]pyridazin-5(6H)-one], the affinity corresponds to a Ki of 4 nM. Compound `CN1CCN(c2ccc(Nc3ncc4c(=O)n(-c5ccccc5Cl)nc(-c5cccnc5Cl)c4n3)cc2)CC1` [Example 80, 6-(2-chlorophenyl)-8-(2-chloropyridin-3-yl)-2-{[4-(4-methylpiperazin-1-yl)phenyl]amino}pyrimido[4,5-d]pyridazin-5(6H)-one] displayed an inhibition constant Ki of 27 nM. With `CNC(=O)c1cccc(-c2nn(-c3c(Cl)cccc3Cl)c(=O)c3cnc(Nc4ccc(N5CCN(C)CC5)cc4)nc23)c1` [Example 191, 3-[6-(2,6-dichlorophenyl)-2-{[4-(4-methylpiperazin-1-yl)phenyl]amino}-5-oxo-5,6-dihydropyrimido[4,5-d]pyridazin-8-yl]-N-methylbenzamide], the Ki was found to be 0.03 nM. As for `Cc1nn(-c2ccccc2Cl)c(=O)c2cnc(Nc3ccc(N4CCN(CCCN(C)C)CC4)cc3)nc12` [Example 518, 6-(2-chlorophenyl)-2-[(4-{4-[3-(dimethylamino)propyl]piperazin-1-yl}phenyl)amino]-8-methylpyrimido[4,5-d]pyridazin-5(6H)-one], the figure is 0.7 nM. As for `CNCCn1cc(-c2nn(-c3c(Cl)cccc3Cl)c(=O)c3cnc(Nc4ccc(N5CCN(C)CC5)cc4)nc23)cn1` [Example 211, 6-(2,6-dichlorophenyl)-8-{1-[2-(methylamino)ethyl]-1H-pyrazol-4-yl}-2-{[4-(4-methylpiperazin-1-yl)phenyl]amino}pyrimido[4,5-d]pyridazin-5(6H)-one], the figure is 0.6 nM. The compound `CC(=O)N1Cc2cc(Nc3ncc4c(=O)n(-c5c(Cl)cccc5Cl)nc(C(F)F)c4n3)ccc2C2(CC2)C1` [Example 415, 2-[(2′-acetyl-2′,3′-dihydro-1′H-spiro[cyclopropane-1,4′-isoquinolin]-7′-yl)amino]-6-(2,6-dichlorophenyl)-8-(difluoromethyl)pyrimido[4,5-d]pyridazin-5(6H)-one] registered a Ki of 1 nM. In turn, `Cc1ccccc1-n1nc(-c2ccco2)c2nc(Nc3ccc4c(c3)CN(C)CC4)ncc2c1=O` [Example 233, 8-(furan-2-yl)-6-(2-methylphenyl)-2-[(2-methyl-1,2,3,4-tetrahydroisoquinolin-7-yl)amino]pyrimido[4,5-d]pyridazin-5(6H)-one] gave a Ki of 0.3 nM. In turn, `Cc1nn(-c2ncccc2Cl)c(=O)c2cnc(Nc3ccc4c(c3)CNCC4)nc12` [Example 400, 6-(3-chloropyridin-2-yl)-8-methyl-2-(1,2,3,4-tetrahydroisoquinolin-7-ylamino)pyrimido[4,5-d]pyridazin-5(6H)-one] showed an inhibition constant Ki of 6.7 nM. `CC1CCCC(C)C1n1nc(-c2ccccn2)c2nc(Nc3ccc(N4CCNCC4)cc3)ncc2c1=O` (stereo not drawn) [Example 333, 6-(2,6-dimethylcyclohexyl)-2-{[4-(piperazin-1-yl)phenyl]amino}-8-(pyridin-2-yl)pyrimido[4,5-d]pyridazin-5(6H)-one]: the Ki is 770 nM.

Take `CCCc1nn(-c2ccccc2)c(=O)c2cnc(Nc3ccc(N4CCN(C)CC4)cc3)nc12` [Example 17, 2-{[4-(4-methylpiperazin-1-yl)phenyl]amino}-6-phenyl-8-propylpyrimido[4,5-d]pyridazin-5(6H)-one]: the Ki came out at 36 nM. To `CC1(C)CNCc2cc(Nc3ncc4c(=O)n(-c5ccncc5)nc(-c5ccccn5)c4n3)ccc21` [Example 238, 2-[(4,4-dimethyl-1,2,3,4-tetrahydroisoquinolin-7-yl)amino]-8-(pyridin-2-yl)-6-(pyridin-4-yl)pyrimido[4,5-d]pyridazin-5(6H)-one] belongs 34 nM. `CN1CCN(c2ccc(Nc3ncc4c(=O)n(-c5c(Cl)cccc5Cl)nc(-c5cccs5)c4n3)cc2)CC1` [Example 70, 6-(2,6-dichlorophenyl)-2-{[4-(4-methylpiperazin-1-yl)phenyl]amino}-8-(2-thienyl)pyrimido[4,5-d]pyridazin-5(6H)-one] came in with a Ki of 0.1 nM. As for `COCCn1ccc(-c2nn(-c3c(Cl)cccc3Cl)c(=O)c3cnc(Nc4ccc(N5CCN(C)CC5)cc4)nc23)n1` [Example 252, 6-(2,6-dichlorophenyl)-8-[1-(2-methoxyethyl)-1H-pyrazol-3-yl]-2-{[4-(4-methylpiperazin-1-yl)phenyl]amino}pyrimido[4,5-d]pyridazin-5(6H)-one], the figure is 0.4 nM; as for `C=CCn1nc(-c2ccccc2)c2nc(Nc3ccc(S(=O)(=O)N4CCOCC4)cc3)ncc2c1=O` [Example 110, 6-allyl-2-{[4-(morpholin-4-ylsulfonyl)phenyl]amino}-8-phenylpyrimido[4,5-d]pyridazin-5(6H)-one], above 3140 nM.
